Results: patent US20020032183A1, “Use of (di-substituted-phenyl)-pyrimidinyl-imidazole derivatives as JNK-inhibitors” (priority 2000, published 2002)
pIC50: −log10 of the molar value.

Key:
[1] = system: mouse cerebellar granule neurons; assay: Detection of neuronal apoptosis in mouse cerebellar granule neurons (low K+); type: cell-based; conditions: Neuron, low (5 mM) K+, serum-free, 8 h, FIG. 1, read-out: IC50 for inhibition of neuronal apoptosis
Method: 1. Dissect out cerebella from 7-9 day old CD-I mouse pups; remove meninges.
2. Mince and dissociate with trypsin. Halt trypsinization with Dnase I and egg white trypsin inhibitor.
3. Individual cells are obtained by trituration with a pasteur pipet.
4. Cells were resuspended in cell culture media [(cMEM) E-MEM), 25 mM glucose, 10% fetal bovine serum, 2 mM glutamine, 100 μg/mL gentamycin, 25 mM KCl] and seeded at 1.2×10^5 cells per well onto 96-well microplates pre-coated with poly-D-lysine.
5. Cultures were incubated at 37° C. in 6% CO2, and were used for experiments on day 5-7 in vitro.
1. Replace media in column 1 with serum-free cMEM. Replace medium in columns 2-12 with serum-free cMEM with low (5 mM) K+.
2. Add drug titrations (serial diluted in DMSO; final 1% DMSO). Incubate 8 h @ 37° C.
3. Spin plate @ 1500 rpm 10 min., remove media and add lysis buffer.
4. Incubate 30 min. room temp. shaking.
5. Spin plate @ 1500 rpm 10 min., transfer supernatant to fresh plate. Store @ 4° C.
6. Transfer 5 μL supernatant and 45 μL EIA reagent to EIA strip plate (positive control standards in column 12); incubate @ room temp 2 h.
7. Wash strip plate with PBS using the plate washer.
8. Add 150 μL K-blue substrate (ELISA Technologies, Inc., Gainsville, Fla.); stop using 50 μL Red Stop. Read plate @ 650 nm.

[2] = system: Rat superior cervical ganglion neurons; assay: Sympathetic neuronal NGF deprivation assay (GAP-43 ELISA and cell counts); type: cell-based; conditions: for Survival, Cell Counts Mean / Survival, ELISA Data Mean: 72 hours; for Survival, ELISA Data Mean: GAP-43 ELISA
Method: Activation of c-jun-N-terminal kinase (JNK) has been implicated in apoptosis in sympathetic neurons. An inhibitor of JNK, Example 2, was tested for neuroprotective effects in two models of sympathetic neuronal cell death.
In the second model, ganglia were dissociated and plated in the presence of NGF 25 ng/ml for 4 days. The NGF was then removed by washing and application of a blocking antibody, and L-790,984 coadministered for 72 hours. Survival was then assayed using the GAP-43 ELISA. This model will be referred to hereafter as the ‘NGF deprivation assay’.
Ganglia were enzymatically dissociated using 0.25% trypsin for 45 minutes. The trypsin was then inhibited using Dulbecco's MEM (DMEM) supplemented with 10% fetal bovine serum, and the cells mechanically triturated using a pipette tip to form a single cell suspension. Neurons in the suspension were counted using a haemocytometer, and plated at a density of 3000-5000 neurons per well in poly-D-lysine and laminin coated 96 well tissue culture clusters in DMEM supplemented with B27 serum substitute. Cultures were then incubated at 37° C./5% CO2. One hour following plating, cultures were either treated with NGF 25 ng/ml or with L-790,984 at a range of concentrations for the NGF deprivation and survival assays respectively.
Cultures for the NGF deprivation assay were returned to the incubator for 4 days. Following this, the medium was aspirated, plates washed once with DMEM/B27, and the cultures treated with Example 2 at concentrations ranging from 1 nM to 10 μM, together with an anti-NGF blocking antibody at 250 ng/ml. Cultures were then returned to the incubator for a further 72 hours prior to fixation and survival quantification. Cultures treated with Example 2 immediately for the survival assay were returned to the incubator for 48 hours; cultures were then fixed and survival quantified using the GAP-43 ELISA.
Cultures were fixed by the addition of an equal volume 4% paraformaldehyde to each well for 10 minutes; this was then aspirated, and replaced by a further volume of 4% paraformaldehyde for a further 20 minutes at room temperature. Plates were then washed three times with PBS/0.3% TX100, and non-specific binding sites blocked by the addition of 5% normal horse serum (NHS) in PBS/0.3% TX100. Plates were incubated at room temperature for one hour, then the blocking serum was aspirated without washing and replaced with primary antibody. The primary antibody used was a mouse monoclonal antibody raised against Growth Associated Protein 43 (Sigma), prepared at a dilution of 1:500 in PBS/0.3% TX100/5% NHS. Primary antibody was added to all sample wells, with four control wells returned to blocking serum to act as minus primary control. Plates were then refrigerated overnight at 4° C. The next day, plates were washed three times with PBS/0.3 TX100 and secondary antibody added. The secondary antibody used was peroxidase conjugated sheep anti-mouse IgG, and was added at a dilution of 1:1000 in PBS/0.3% TX100/5% NHS. Plates were incubated for 1 hour at room temperature, then washed three times with PBS/0.3% TX100, and K-Blue insoluble peroxidase substrate added for 30 minutes at room temperature. The optical density of the plates was then read at 650 nm, and the survival of neurons calculated and expressed as percentage of the control response.
Cell counts were performed on one sample plate for each model of sympathetic neuronal cell death, by the addition of a tertiary antibody to the plate, followed by avidin-biotin complex and an insoluble peroxidase substrate. Following quantification of optical density, plates were washed three times in PBS/0.3% TX100, and non-specific sites blocked using PBS/0.3% TX100/5% normal rabbit serum (“NRS”). Plates were incubated for one hour at room temperature, then the blocking serum was aspirated and replaced with biotinylated rabbit anti-sheep IgG at a dilution of 1:500 in PBS/0.3% TX10O/5% NRS. […]

CCCn1c(C2CCN(C)CC2)nc(-c2ccc(Cl)c(Cl)c2)c1-c1ccnc(NC2CC2)n1 [Example 2, Cyclopropyl-{4-[5-(3,4-dichlorophenyl)-2-[(1-methyl)-piperidin]-4-yl-3-propyl-3H-imidazol-4-yl]-pyrimidin-2-yl}amine]
pIC50 [1]: 7.00
Survival, Cell Counts Mean ([2]; 0.001 μM + anti-NGF 250 ng/ml): 82.00
Survival, ELISA Data Mean ([2]; 0.001 μM + anti-NGF 250 ng/ml): 35.44
Survival, Cell Counts Mean ([2]; 0.01 μM + anti-NGF 250 ng/ml): 81.00
Survival, ELISA Data Mean ([2]; 0.01 μM + anti-NGF 250 ng/ml): 28.20
Survival, Cell Counts Mean ([2]; 0.1 μM + anti-NGF 250 ng/ml): 53.75
Survival, ELISA Data Mean ([2]; 0.1 μM + anti-NGF 250 ng/ml): 22.89
Survival, Cell Counts Mean ([2]; 0.5 μM + anti-NGF 250 ng/ml): 140.25
Survival, ELISA Data Mean ([2]; 0.5 μM + anti-NGF 250 ng/ml): 60.15
Survival, Cell Counts Mean ([2]; 1 μM + anti-NGF 250 ng/ml): 200.00
Survival, ELISA Data Mean ([2]; 1 μM + anti-NGF 250 ng/ml): 102.79
Concentrations at which the survival response was significant ([2]; measured by ELISA): ≥ 500 nM
Concentrations at which the survival response was significant ([2]; measured by cell counts): ≥ 500 nM
